Measured values taken from ChEMBL document CHEMBL1150808, “General behavior, toxicity, and cytotoxic activity of elenoside, a lignan from Justicia hyssopifolia” (J Nat Prod, 2001).

Assays:
[1] = test system: Mus musculus; assay: Toxicity in Swiss albino mouse assessed as loss of spontaneous movement at 25 mg/kg, ip after 1 hr by Lim test; type: organism-based; design: dose 25 mg/kg, route intraperitoneal; details: in vivo
[2] = test system: RPMI-8226; assay: Growth inhibition of human RPMI8226 cells at 100 uM; type: functional; details: read-out: GI
[3] = test system: NCI-H23; assay: Growth inhibition of human NCI-H23 cells
[4] = test system: OVCAR-4; assay: Growth inhibition of human OVCAR4 cells; type: functional
[5] = test system: Mus musculus; assay: Toxicity in Swiss albino mouse assessed as loss of muscle tone at 25 mg/kg, ip after 1 hr by Lim test; type: organism-based, Muscle tissue; design: dose 25 mg/kg, route intraperitoneal; details: in vivo
[6] = test system: RPMI-8226; assay: Growth inhibition of human RPMI8226 cells; type: functional
[7] = test system: OVCAR-3; assay: Growth inhibition of human OVCAR-3 cells; type: functional
[8] = test system: NCI-H522; assay: Growth inhibition of human NCI-H522 cells at 100 uM; type: functional; details: read-out: GI
[9] = test system: OVCAR-3; assay: Growth inhibition of human OVCAR-3 cells at 100 uM; type: functional; details: read-out: GI
[10] = species on record: Mus musculus; assay: Toxicity in Swiss albino mouse assessed as loss of righting reflex after 30 mins by Irwin test; type: organism-based; details: in vivo, 0.5 h
[11] = species on record: Mus musculus; assay: Toxicity in Swiss albino mouse assessed as reduction in spontaneous activity after 60 mins by Irwin test; type: organism-based; details: in vivo, 1 h
[12] = test system: Mus musculus; assay: Toxicity in Swiss albino mouse assessed as loss of spontaneous movement at 50 mg/kg, ip after 1 hr by Lim test; type: organism-based; design: dose 50 mg/kg, route intraperitoneal; details: in vivo
[13] = species on record: Mus musculus; assay: Toxicity in Swiss albino mouse assessed as involvement of autonomic nervous system; type: organism-based; details: in vivo
[14] = test system: KM12; assay: Growth inhibition of human KM12 cells; type: functional
[15] = species on record: Mus musculus; assay: Toxicity in Swiss albino mouse assessed as reduction in tremors by Irwin test; type: organism-based; details: in vivo
[16] = test system: SF-268; assay: Growth inhibition of human SF268 cells at 100 uM; type: functional; details: read-out: GI
[17] = test system: SNB-75; assay: Growth inhibition of human SNB75 cells at 100 uM; type: functional; details: read-out: GI
[18] = test system: UACC-257; assay: Growth inhibition of human UACC257 cells; type: functional
[19] = test system: Mus musculus; assay: Toxicity in Swiss albino mouse assessed as loss of muscle tone at 50 mg/kg, ip after 1 hr by Lim test; type: organism-based, Muscle tissue; design: dose 50 mg/kg, route intraperitoneal; details: in vivo
[20] = test system: CCRF-CEM; assay: Growth inhibition of human CCRF-CEM cells; type: functional
[21] = test system: OVCAR-4; assay: Growth inhibition of human OVCAR4 cells at 100 uM; type: functional; details: read-out: GI
[22] = species on record: Mus musculus; assay: Toxicity in Swiss albino mouse assessed as reduction in sensory-motor response by Irwin test; type: organism-based; details: in vivo
[23] = species on record: Mus musculus; assay: Toxicity in Swiss albino mouse assessed as reduction in muscular tone after 180 mins by Irwin test; type: organism-based; details: in vivo, 3 h
[24] = species on record: Mus musculus; assay: Toxicity in Swiss albino mouse assessed as reduction in equilibrium after 180 mins by Irwin test; type: organism-based; details: in vivo, 3 h
[25] = species on record: Mus musculus; assay: Toxicity in Swiss albino mouse assessed as reduction in motor affective response by Irwin test; type: organism-based; details: in vivo
[26] = test system: DMS-273; assay: Growth inhibition of human DMS273 cells at 100 uM; type: functional; details: read-out: GI
[27] = test system: KM12; assay: Growth inhibition of human KM12 cells at 100 uM; type: functional; details: read-out: GI
[28] = test system: SNB-19; assay: Growth inhibition of human SNB19 cells at 100 uM; type: functional; details: read-out: GI
[29] = test system: NCI-H522; assay: Growth inhibition of human NCI-H522 cells; type: functional
[30] = test system: K562; assay: Growth inhibition of human K562 cells at 100 uM; type: functional; details: read-out: GI
[31] = test system: MOLT-4; assay: Growth inhibition of human MOLT4 cells at 100 uM; type: functional; details: read-out: GI
[32] = test system: M19-MEL; assay: Growth inhibition of human M19-MEL cells; type: functional
[33] = test system: NCI-H226; assay: Growth inhibition of human NCI-H226 cells; type: functional
[34] = test system: Mus musculus; assay: Toxicity in Swiss albino mouse assessed as loss of righting reflex at 25 mg/kg, ip after 1 hr by Lim test; type: organism-based; design: dose 25 mg/kg, route intraperitoneal; details: in vivo
[35] = test system: Mus musculus; assay: Toxicity in Swiss albino mouse assessed as loss of righting reflex at 10 mg/kg, ip after 1 hr by Lim test; type: organism-based; design: dose 10 mg/kg, route intraperitoneal; details: in vivo
[36] = test system: SNB-19; assay: Growth inhibition of human SNB19 cells; type: functional
[37] = species on record: Mus musculus; assay: Toxicity in Swiss albino mouse assessed as loss of hypotonic gait after 30 mins by Irwin test; type: organism-based; details: in vivo, 0.5 h
[38] = test system: Mus musculus; assay: Toxicity in Swiss albino mouse assessed as loss of muscle tone at 10 mg/kg, ip after 1 hr by Lim test; type: organism-based, Muscle tissue; design: dose 10 mg/kg, route intraperitoneal; details: in vivo
[39] = test system: UACC-257; assay: Growth inhibition of human UACC257 cells at 100 uM; type: functional; details: read-out: GI
[40] = test system: HCT-116; assay: Growth inhibition of human HCT116 cells; type: functional
[41] = test system: MOLT-4; assay: Growth inhibition of human MOLT4 cells; type: functional
[42] = test system: Mus musculus; assay: Toxicity in Swiss albino mouse assessed as loss of righting reflex at 50 mg/kg, ip after 1 hr by Lim test; type: organism-based; design: dose 50 mg/kg, route intraperitoneal; details: in vivo
[43] = test system: SK-MEL-2; assay: Growth inhibition of human SK-MEL-2 cells at 100 uM; type: functional; details: read-out: GI
[44] = species on record: Mus musculus; assay: Toxicity in Swiss albino mouse assessed as reduction in twitches by Irwin test; type: organism-based; details: in vivo
[45] = test system: Mus musculus; assay: Toxicity in Swiss albino mouse assessed as loss of spontaneous movement at 10 mg/kg, ip after 1 hr by Lim test; type: organism-based; design: dose 10 mg/kg, route intraperitoneal; details: in vivo
[46] = test system: NCI-H226; assay: Growth inhibition of human NCI-H226 cells at 100 uM; type: functional; details: read-out: GI
[47] = test system: SF-268; assay: Growth inhibition of human SF268 cells; type: functional
[48] = species on record: Mus musculus; assay: Toxicity in Swiss albino mouse assessed as loss of sight after 30 mins by Irwin test; type: organism-based; details: in vivo, 0.5 h
[49] = test system: DMS-273; assay: Growth inhibition of human DMS273 cells; type: functional
[50] = test system: HCT-116; assay: Growth inhibition of human HCT116 cells at 100 uM; type: functional; details: read-out: GI
[51] = test system: UO-31; assay: Growth inhibition of human UO31 cells; type: functional
[52] = Toxicity in Swiss albino mouse assessed as death after 5 days assessed after 24 hrs post treatment by Irwin test; type: organism-based; details: in vivo
[53] = test system: HCC 2998; assay: Growth inhibition of human HCC2998 cells; type: functional
[54] = test system: HCC 2998; assay: Growth inhibition of human HCC2998 cells at 100 uM; type: functional; details: read-out: GI
[55] = test system: UO-31; assay: Growth inhibition of human UO31 cells at 100 uM; type: functional; details: read-out: GI
[56] = species on record: Mus musculus; assay: Toxicity in Swiss albino mouse assessed as reduction in convulsions by Irwin test; type: organism-based; details: in vivo
[57] = test system: SK-MEL-2; assay: Growth inhibition of human SK-MEL-2 cells; type: functional
[58] = test system: SK-MEL-5; assay: Growth inhibition of human SK-MEL-5 cells at 100 uM; type: functional; details: read-out: GI
[59] = test system: K562; assay: Growth inhibition of human K562 cells; type: functional
[60] = test system: CCRF-CEM; assay: Growth inhibition of human CCRF-CEM cells at 100 uM; type: functional; details: read-out: GI
[61] = test system: M19-MEL; assay: Growth inhibition of human M19-MEL cells at 100 uM; type: functional; details: read-out: GI
[62] = test system: SK-MEL-5; assay: Growth inhibition of human SK-MEL-5 cells; type: functional
[63] = test system: NCI-H23; assay: Growth inhibition of human NCI-H23 cells at 100 uM; type: functional; details: read-out: GI
[64] = test system: SNB-75; assay: Growth inhibition of human SNB75 cells; type: functional

SMILES: O=C1OCc2c1cc1ccc(O)c(O[C@@H]3O[C@H](CO)[C@@H](O)[C@H](O)[C@H]3O)c1c2-c1ccc2c(c1)OCO2 [ELENOSIDE]
- Activity [1]: 50%
- inhibition of growth at 100 µM [2]: 97%
- GI50 [3]: 47.5 µM
- GI50 [4]: 56.2 µM
- Activity [5]: 50%
- GI50 [6]: 34.6 µM
- GI50 [7]: 64.6 µM
- inhibition of growth at 100 µM [8]: 126%
- inhibition of growth at 100 µM [9]: 60%
- Activity [10]: Toxic
- Activity [11]: Toxic
- Activity [12]: 60%
- Activity [13]: Toxic
- GI50 [14]: 23.4 µM
- Activity [15]: Non-toxic
- inhibition of growth at 100 µM [16]: 70%
- inhibition of growth at 100 µM [17]: 66%
- GI50 [18]: 37.9 µM
- Activity [19]: 60%
- GI50 [20]: 34.9 µM
- inhibition of growth at 100 µM [21]: 66%
- Activity [22]: Dose-dependent effect
- Activity [23]: Dose-dependent effect
- Activity [24]: Toxic
- Activity [25]: Dose-dependent effect
- inhibition of growth at 100 µM [26]: 67%
- inhibition of growth at 100 µM [27]: 77%
- inhibition of growth at 100 µM [28]: 81%
- GI50 [29]: 22.6 µM
- inhibition of growth at 100 µM [30]: 79%
- inhibition of growth at 100 µM [31]: 88%
- GI50 [32]: 38.2 µM
- GI50 [33]: 48.4 µM
- Activity [34]: 20%
- Activity [35]: 40%
- GI50 [36]: 36 µM
- Activity [37]: Toxic
- Activity [38]: 90%
- inhibition of growth at 100 µM [39]: 72%
- GI50 [40]: 39.7 µM
- GI50 [41]: 34.3 µM
- Activity [42]: 20%
- inhibition of growth at 100 µM [43]: 84%
- Activity [44]: Non-toxic
- Activity [45]: 90%
- inhibition of growth at 100 µM [46]: 72%
- GI50 [47]: 57.1 µM
- Activity [48]: Toxic
- GI50 [49]: 47.5 µM
- inhibition of growth at 100 µM [50]: 77%
- GI50 [51]: 27.2 µM
- LD50 at 5 days [52]: 3.05 mg/kg
- GI50 [53]: 38.2 µM
- inhibition of growth at 100 µM [54]: 87%
- inhibition of growth at 100 µM [55]: 80%
- Activity [56]: Non-toxic
- GI50 [57]: 33.5 µM
- inhibition of growth at 100 µM [58]: 114%
- GI50 [59]: 39.5 µM
- inhibition of growth at 100 µM [60]: 84%
- inhibition of growth at 100 µM [61]: 81%
- GI50 [62]: 26.2 µM
- inhibition of growth at 100 µM [63]: 72%
- GI50 [64]: 55.2 µM
